In patent publication US11033535B2, “Oxadiazoles and thiadiazoles as TGF-β inhibitors” (Southern Research Institute, priority 2017, dated 2021):

Experiments:
[1] = system: BLM induced lung fibrosis; experiment: BLM induced unilateral lung fibrosis model; type: in vivo, SD rats; set-up: left lung bronchial and arteriole damages (score), In the fibrosis core (n = 6) / left lung bronchial and arteriole damages (score), In the border of fibrosis (n = 6): scale not given here; details: for body weight, Changes in the ratio (%) / body weight: 10 mg/kg/d ip (n = 6); for body weight: in g (unit assumed)
Procedure: Species and quality level: SD rats, SPF grade; Gender and number: male, 12; Purchasing body weight range: 260-280 g; Company Certificate No.: SCXX (zhe) 2018-0001, Zhejiang Vital River Laboratory Animal Technology Co., Ltd.
Model Establishment: This study was carried out in strict accordance with the SOP institutional guidelines for the care and use of laboratory animals. Rats were anesthetized by intraperitoneal injection of pentobarbital sodium at dose of 50 mg/kg. Then rat neck skin was disinfected and opened in layers. The trachea was exposed carefully. Bleomycin (BLM) was directly injected into left main bronchus at a dose of 3 mg/kg body weight in volume of 1.0 ml/kg via a cannula. After closing the trachea and skin in layers the animal was moved on an electric heat pad at 37° C. to wait waking up from anesthesia before returning to holding cages with free access to water and diet.
Rats were assigned into two groups: Model (Group-1, n=6), CPD-X (Group-2, 10 mg/kg/d, n=6) (Table 13).
a Test article, CPD-X was designed as an intraperitoneal injection once a day starting from day-8 of modeling for 14 days (Table 13). The saline as a vehicle for model group via a ip injection once a day for 14 days.
One day after the last dosing all animals were euthanized according to the standard SOP at KCl. After confirming the animal death the left lung BALF was collected according the standard SOP at KCl. The BALF was frozen in liquid nitrogen and stored at −80° C. The left lungs then were perfused with equal volume of 10% formaldehyde solution (3 mL for each lung).
Lung pathology was processed after lung fixation. All animal hearts were collected at same time, weighted, and fixed in 10% formaldehyde solution for histology examination.
The whole left lung was dehydrated and wax embedded following KCl pathology SOP, then sectioned at […] in thickness. HE and Masson Trichrome staining were processed following KCl pathology standard staining SOPs, whole slides were then scanned by Hamamatsu NanoZoomer Digital Pathology S210 slide scanner after staining. Bronchiole and pulmonary arteriole damage and inflammatory cell infiltration in fibrosis core and fibrotic board area were scored with H&E stained slides (Table 14 and Table 15, FIG. 8), for which 5 different areas were selected in each lung slide. BLM induced left lung injury area and Ashcraft scoring for fibrosis were evaluated with Masson Trichrome stained slides (Table 16 and FIG. 9), for which 10 different areas were selected in each lung slide.
The animal hearts were dehydrated and wax embedded following KCl pathology SOP, then sectioned at […] in thickness. HE staining was processed following KCl pathology standard staining SOPs, whole slides were then scanned by Hamamatsu NanoZoomer Digital Pathology S210 slide scanner after staining. The thickness of left ventricle wall (LV), septum and right ventricle wall (RV) were measured at five different points and calculated the average thickness of LV, septum and RV.
a Statistical analysis was performed using Graphpad prism 6.0 software. Descriptive results were expressed as mean±sem or mean±sd. Statistical comparisons were performed using t-test, two-way ANOVA analysis. The p value <0.05 was considered as statistically significant.

[2] = system: BLM induced lung fibrosis; experiment: BLM induced unilateral lung fibrosis model; type: in vivo, SD rats; details: 10 mg/kg/d ip (n = 6), day 77
[3] = 10 mg/kg ip QD 14 days from day-8, p < 0.05 vs. model

CC(=O)NC(Cc1ccc(CN)cc1)c1nnc(-c2cccc(OC(F)(F)F)c2)s1 (stereo not drawn) [CPD-X]
body weight recovery vs. model group [1]: significant difference in body recovery
fibrosis by Ashcraft scoring [1]: significant reduction in fibrosis
share of fibrosis score ≤3 [1]: about 80%
left lung bronchial and arteriole damages (score), In the fibrosis core (n = 6) ([1]; 10 mg/kg ip QD 14 days from day-8, H&E, p < 0.001 vs. model): 6.23 ± 0.67
left lung bronchial and arteriole damages (score), In the border of fibrosis (n = 6) ([1]; 10 mg/kg ip QD 14 days from day-8, H&E, p < 0.01 vs. model): 4.8 ± 0.54
Lang damage area (%) ([1]; 10 mg/kg ip QD 14 days from day-8, Masson Trichrome, left lung): 70.69 ± 10.66%
Ashcraft fibrosis score ([1]; 10 mg/kg ip QD 14 days from day-8, Masson Trichrome, p < 0.01 vs. model): 2.55 ± 0.29
% of fibrosis score (≤3) [1, 3]: 90 ± 10.95 %
% of fibrosis score (≥4) [1, 3]: 10 ± 10.95 %
body weight, Changes in the ratio (%) ([1]; day 0): 0%
body weight ([1]; day 0): 286.0 ± 6.1
body weight, Changes in the ratio (%) ([1]; day 2): −9.6 ± 3.6%
body weight ([1]; day 2): 258.7 ± 13.4
body weight, Changes in the ratio (%) ([1]; day 5): −8.3 ± 6.7%
body weight ([1]; day 5): 262.4 ± 22.6
body weight, Changes in the ratio (%) ([1]; day 7): −4.4 ± 7.6%
body weight ([1]; day 7): 273.6 ± 24.9
body weight, Changes in the ratio (%) ([1]; day 9): −0.8 ± 7.5%
body weight ([1]; day 9): 283.9 ± 24.5
body weight, Changes in the ratio (%) ([1]; day 11): 2.8 ± 7.0%
body weight ([1]; day 11): 294.1 ± 23.5
body weight, Changes in the ratio (%) ([1]; day 13): 5.5 ± 6.4%
body weight ([1]; day 13): 302.0 ± 22.0
body weight, Changes in the ratio (%) ([1]; day 15): 8.2 ± 6.1%
body weight ([1]; day 15): 309.0 ± 20.4
body weight, Changes in the ratio (%) ([1]; day 17): 13.7 ± 6.4%
body weight ([1]; day 17): 325.3 ± 21.2
body weight, Changes in the ratio (%) ([1]; day 19): 14.4 ± 5.9%
body weight ([1]; day 19): 327.3 ± 20.7
body weight, Changes in the ratio (%) ([1]; day 21): 18.4 ± 5.3%
body weight ([1]; day 21): 338.9 ± 19.4
therapeutic effect (summary) ([1]; ip from day-8 of modeling for 14 days): significant improvement in bronchial and arteriole damage and alveolar fibrosis
right ventricle wall thickness ([1]; no statistic difference as compared to model group): slightly limited the right ventricle wall thickness
bronchial and arteriole damages in fibrotic core and border of fibrosis ([1]; p<0.001): significant therapeutic effect on reduction of bronchial and arteriole damages
body weight, Changes in the ratio (%) [2]: 19.4 ± 5.4%
body weight ([2]; in g (unit assumed)): 341.6 ± 18.8
